What was measured:
[1] = target: T1, Recombinant His-tagged HIV-1 integrase (Human immunodeficiency virus type 1 group M subtype B, UniProt P12497, C1427S/F1332K); assay: Enzymatic integrase assay (oligonucleotide-based DNA strand transfer, ELISA); assay type: biochemical
T1 construct: Recombinant His-tagged HIV-1 integrase; His; made in house; host or cells: E. coli BL21(DE3)
Experimental: Enzymatic Integrase Assay
The activity of HIV-integrase was determined using an oligonucleotide-based assay in which the DNA strand transfer by preformed complexes of integrase and processed DNA was measured by means of an enzyme-linked immunosorbent assay (ELISA) in microtiter plate format. Recombinant His-tagged HIV-1 integrase was produced in the E. coli strain BL21(DE3) from the plasmid pINSD.His.sol (available from NTH) after induction with isopropyl-β-D-thiogalactopyranoside (IPTG) according to described procedures (cfr. ref. Jenkins et al., “A soluble active mutant of HIV-1 integrase”, J. Biol. Chem. 271 ([…]), 7712-7718). HPLC-purified oligodeoxynucleotides were obtained from Proligo, and used for preparation of the viral DNA substrate and target DNA.
INb-1C is 5′-biotinylated, INT5 and INT6 are at the 3′-end labeled with FITC. INb-1C and IN-1NC correspond to the U5 end of the HIV-1 LTR. The DNA substrate for the integrase reactions was made by annealing INb-1C and IN-1NC. An equimolar mixture of INb-1C and IN-1NC was heated shortly at 95° C. in the presence of 100 mM NaCl and allowed to cool slowly to room temperature. In the same way, INT5 and INT6 were annealed to produce a target DNA molecule.
The integration strand transfer reactions were performed in the following way:
20 nM biotinylated DNA substrate INb-1C/IN-1NC was pre-incubated with 300 nM HIV-integrase at 37° C. for 5 min, to allow the cleavage reaction to occur. The candidate compounds and 50 nM target DNA INT5/INT6 were added to the reaction mix containing 20 mM Hepes pH 7.5, 25 mM NaCl, 5 mM MnCl2, 2 mM DTT, and 50 μg/ml BSA, and incubated for 2 h at 37° C. The reaction mix was transferred to streptavidin-coated plates (Exiqon), which were prewashed (three times) with 5×SSCT, and incubated for 1 h at room temperature to allow capture of the biotinylated viral DNA/target DNA complex. Plates were washed three times with 2×SSCT buffer, and anti-FITC POD-coupled antibody (Roche) was added and incubated for 1 h at room temperature to detect integrated FITC-labeled target DNA. After a final washing step with PBST (5 times), BM chemiluminescent POD-substrate (Roche) was added, and luminescence was read out.
The table below list the pIC50 values for those compounds tested in the enzymatic integrase assay. The pIC50 is expressed in Molar units and is the value according to the following formula: pIC50=−log IC50
wherein the IC50 value is the drug concentration at which 50% of the enzyme or viral activity is inhibited.

[2] = system: MT4 cells infected with HIV; assay: Analysis of HIV integration using real-time PCR; assay type: cell-based; conditions: for 2LTR-circles (DNA copies) / Integration Alu-PCR (integrated DNA copies): DNA analyzed 16 h after infection, relative to control; for Conclusion (step of replication cycle inhibited): from Alu-PCR and 2LTR-circles
Experimental: Analysis of HIV Integration Using Real-Time PCR
Next to the detection of integrated DNA (proviral DNA), the production of 2LTR-circles formed by circularisation of unintegrated DNA was monitored. Specific inhibition of the integration of viral DNA into the genome was typically associated with accumulation of 2LTR-circles in the nucleus. MT4 cells were infected with HIV at high MOI by centrifugation for 60 min at 1200 g. After infection cells were incubated in the presence of compound in 24-well plates (10^6 c/well) for 16 h, and DNA was extracted using the QiaAmp DNA mini kit (Qiagen).
After normalization, 2LTR-circles and integrated DNA were quantified by real-time PCR using the appropriate primers and probe (cfr. reference Butler et al.). Reactions were analysed using the ABI Prism 5700 sequence detection system (Applied Biosystems).
DNA was analyzed for integration (Alu-PCR) and 2LTR-circles, 16 h after infection. DNA was also analyzed for viral cDNA synthesis, 4 h after infection.

| Compound | IC50 [1] [nM] | 2LTR-circles (DNA copies) [2] | Integration Alu-PCR (integrated DNA copies) [2] | Conclusion (step of replication cycle inhibited) [2] |
| --- | --- | --- | --- | --- |
| O=C1c2c(c(O)c3nccnc3c2O)C(=O)N1Cc1ccc2c(c1)OCO2 [Compound 1, 7-Benzo[1,3]dioxol-5-ylmethyl-5,9-dihydroxy-pyrrolo[3,4-g]quinoxaline-6,8-dione] | 617 | +++ (“+++” symbol indicates an increase in the amount of DNA copies > 5 in comparison with the control level) | − | Integrase |
| O=C1c2c(c(O)c3nccnc3c2O)C(=O)N1Cc1ccc(F)cc1 [Compound 2, 7-(4-Fluoro-benzyl)-5,9-dihydroxy-pyrrolo[3,4-g]quinoxaline-6,8-dione] | 417 | +++ (“+++” symbol indicates an increase in the amount of DNA copies > 5 in comparison with the control level) | − | Integrase |
| CC(C)Oc1ccc(Cc2ccccc2)cc1C(=O)CC(=O)C(=O)O [Reference compound, reference compound] |  | +++ (“+++” symbol indicates an increase in the amount of DNA copies > 5 in comparison with the control level) | − | Integrase |
| COc1ccc(CN2C(=O)c3c(c(O)c4nccnc4c3O)C2=O)cc1 [Compound 17, 5,9-Dihydroxy-7-(4-methoxy-benzyl)-pyrrolo[3,4-g]quinoxaline-6,8-dione] | 562 |  |  |  |
| Cc1ccc2c(O)c3c(c(O)c2n1)C(=O)N(c1ccccc1)C3=O [Compound 30, 5,9-Dihydroxy-2-methyl-7-phenyl-pyrrolo[3,4-g]quinoline-6,8-dione] | 24000 |  |  |  |
| O=C1c2c(c(O)c3c(F)cccc3c2O)C(=O)N1Cc1ccc(F)cc1 [Compound 13, 5-Fluoro-2-(4-fluoro-benzyl)-4,9-dihydroxy-benzo[f]isoindole-1,3-dione] | > 100000 |  |  |  |
